Source: PMC9179341, “Design of New Potent and Selective Thiophene-Based KV1.3 Inhibitors and Their Potential for Anticancer Activity” (Cancers, 2022)

tested on: Colo-357; test: not given; design: method as in PMID 29034212; conditions: read-out: EC50 cell death; cited from earlier work

Row | SMILES | EC50 [µM]
1 | O=c1ccc2c(OCCCCOc3ccc(CCC[P+](c4ccccc4)(c4ccccc4)c4ccccc4)cc3)c3ccoc3cc2o1 [PAPTP] | 3.7
2 | O=C(NCCC[P+](c1ccccc1)(c1ccccc1)c1ccccc1)Oc1ccc(OCCCCOc2c3ccoc3cc3oc(=O)ccc23)cc1 [PCARBTP] | 2

target: T1, KV1.3 (Homo sapiens, UniProt P22001); test: KV1.3 inhibition, manual voltage-clamp on Xenopus laevis oocytes; format: cell-based; conditions: 10 μM; manual voltage-clamp on Xenopus laevis oocytes
T1 sequence (P22001 whole entry): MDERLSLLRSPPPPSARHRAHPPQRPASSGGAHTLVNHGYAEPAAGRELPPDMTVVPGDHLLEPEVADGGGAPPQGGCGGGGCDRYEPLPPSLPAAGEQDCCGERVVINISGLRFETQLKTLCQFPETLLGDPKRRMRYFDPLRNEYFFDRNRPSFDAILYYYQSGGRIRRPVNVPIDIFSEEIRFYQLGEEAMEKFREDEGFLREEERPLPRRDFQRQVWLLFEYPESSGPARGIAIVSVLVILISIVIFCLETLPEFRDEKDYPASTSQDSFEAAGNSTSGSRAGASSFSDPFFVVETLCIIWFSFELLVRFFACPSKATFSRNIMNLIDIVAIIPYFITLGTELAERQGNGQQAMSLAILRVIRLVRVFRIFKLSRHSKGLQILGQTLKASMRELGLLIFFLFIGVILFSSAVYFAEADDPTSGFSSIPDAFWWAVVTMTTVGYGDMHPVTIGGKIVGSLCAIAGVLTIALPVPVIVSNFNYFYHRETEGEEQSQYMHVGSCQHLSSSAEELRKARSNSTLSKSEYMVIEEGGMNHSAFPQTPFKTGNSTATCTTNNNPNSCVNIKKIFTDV
Experimental: (§1) Stage V–VI oocytes were isolated by partial ovariectomy from Xenopus laevis frogs (African clawed frogs). […] After anaesthetizing the frogs by a 15-min submersion in 0.1% tricaine methanesulfonate (amino benzoic acid ethyl ester; Merck, Kenilworth, NJ, USA), pH 7.0, the oocytes were collected. The isolated oocytes were then washed with a 1.5 mg/mL collagenase solution for 2 h to remove the follicle layer.
(§2) Ion channels (Kv1.x, Kv2.1, Kv4.2, Kv10.1) were expressed in Xenopus laevis oocytes by linearization of the plasmids and subsequent in vitro transcription using a commercial T7 or SP6 mMESSAGE mMACHINE transcription kit (Ambion, Carlsbad, California, USA). Defolliculated Xenopus oocytes were then injected with 20–50 nL of the cRNA at a concentration of 1 ng/nL using a micro-injector (Drummond Scientific1, Broomall, PA, USA). The oocytes were incubated in a solution containing (in mM): NaCl, 96; KCl, 2; CaCl2, 1.8; MgCl2, 2 and HEPES, 5 (pH 7.5), supplemented with 50 mg/L gentamycin sulfate and 90 mg/L theophylline.
(§3) Two-electrode voltage-clamp recordings were performed at room temperature (18–22 °C) using a Geneclamp 500 amplifier (Molecular Devices, San Jose, CA, USA) and pClamp data acquisition (Axon Instruments, Union City, CA, USA) and using an integrated digital TEVC amplifier controlled by HiClamp, an automated Voltage-Clamp Screening System (Multi Channel Systems MCS GmbH, Reutlingen, Germany). Whole-cell currents from oocytes were recorded 1–4 days after injection. The bath solution composition was ND96 (in mM): NaCl, 96; KCl, 2; CaCl2, 1.8; MgCl2, 2 and HEPES, 5 (pH 7.5). Voltage and current electrodes were filled with a 3 M solution of KCl in H2O. […] The elicited Kv1.x, Kv2.1, Kv4.2 and Kv10.1 currents were filtered at 0.5 kHz and sampled at 2 kHz using a four-pole low-pass Bessel filter. Leak subtraction was performed using a P/4 protocol.
(§4) For the electrophysiological analysis of the compounds, a number of protocols were applied from a holding potential of −90 mV. Currents for Kv1.x, Kv2.1, Kv4.2 and Kv10.1 were evoked by 1 s depolarizing pulses either to 0 mV or to a range of voltage steps between −80 mV and +40 mV. For the analysis of the data, only the inhibition at the 0 mV step was used. The concentration dependency of all compounds was assessed by measuring the current inhibition in the presence of increasing compound concentrations. […] From this stock solution, adequate dilutions with a maximum of 0.5% DMSO were made for testing.
(§5) All electrophysiological data (Figure S1) are presented as means ± S.E.M of n ≥ three independent experiments unless otherwise indicated. […] The Dunnett test and one-way ANOVA were performed to calculate the significance of the induced inhibition compared to the control.

Row | inhibition at 10 µM [%] | SMILES
3 | < 10 | COc1ccc(C2(CNC(=O)c3ccccc3OC)CCCC2)cc1 [Compound 6]
4 | < 10 | COc1ccccc1C(=O)NCC1(c2ccccc2OC)CCCC1 [Compound 7]
5 | < 10 | COc1ccc(C2(CNC(=O)c3ccccc3OC)CCCC2)cc1OC [Compound 8]
6 | < 10 | COc1ccccc1C(=O)NCC1(c2ccc3c(c2)OCO3)CCCC1 [Compound 9]
7 | < 10 | COc1ccccc1C(=O)NCC1(c2ccccc2)CCCC1 [Compound 10]
8 | 18 ± 3 | COc1cccc(C2(CNC(=O)c3ccccc3OC)CCCC2)c1 [Compound 11]
9 | 16 ± 4 | COc1ccccc1C(=O)NCC1(c2cccc(C)c2)CCCC1 [Compound 12]
10 | 57 ± 9 | COc1ccccc1C(=O)NCC1(c2cccs2)CCCC1 [Compound 13]
11 | < 10 | COc1ccc(C2(CNC(=O)c3ccccc3OC)CCCCC2)cc1 [Compound 16]
12 | 12 ± 2 | COc1cccc(C2(CNC(=O)c3ccccc3OC)CCCCC2)c1 [Compound 19]
13 | 27 ± 2 | COc1ccccc1C(=O)NCC1(c2cccc(C)c2)CCCCC1 [Compound 20]
14 | 30 ± 8 | COc1ccccc1C(=O)NCC1(c2ccsc2)CCCCC1 [Compound 21]
15 | 88 ± 4 | COc1cccc(C2(CNC(=O)c3ccccc3OC)CCOCC2)c1 [Compound 28]
16 | 87 ± 4 | COc1ccccc1C(=O)NCC1(c2cccc(C)c2)CCOCC1 [Compound 29]
17 | 89 ± 4 | COc1cc(C)ccc1C(=O)NCC1(c2ccccc2)CCOCC1 [Compound 36]

Second part, the molecule before the results:

Row | SMILES | inhibition at 10 µM [%]
18 | COc1ccc(C2(CNC(=O)c3ccccc3OC)CCCCC2)cc1OC [Compound 15] | < 10
19 | COc1ccccc1C(=O)NCC1(c2ccc(C(F)(F)F)cc2)CCCCC1 [Compound 17] | < 10
20 | COc1ccccc1C(=O)NCC1(c2ccccc2OC)CCCCC1 [Compound 18] | < 10
21 | COc1ccccc1C(=O)NCC1(c2ccc(C(F)(F)F)cc2)CCOCC1 [Compound 22] | < 10
22 | COc1ccc(C2(CNC(=O)c3ccccc3OC)CCOCC2)cc1OC [Compound 23] | < 10
23 | COc1ccc(C2(CNC(=O)c3ccccc3OC)CCOCC2)cc1 [Compound 24] | 59 ± 5
24 | COc1ccccc1C(=O)NCC1(c2ccc(C)cc2)CCOCC1 [Compound 25] | 52 ± 8
25 | COc1ccccc1C(=O)NCC1(c2ccc3c(c2)OCO3)CCOCC1 [Compound 26] | 60 ± 9
26 | COc1ccccc1C(=O)NCC1(c2ccccc2OC)CCOCC1 [Compound 27] | 78 ± 4
27 | COc1cccc(OC)c1C(=O)NCC1(c2ccccc2)CCOCC1 [Compound 30] | < 10
28 | O=C(NCC1(c2ccccc2)CCOCC1)c1ccsc1 [Compound 31] | 11 ± 4
29 | O=C(NCC1(c2ccccc2)CCOCC1)c1ccoc1 [Compound 32] | 27 ± 6
30 | COc1ccccc1CC(=O)NCC1(c2ccccc2)CCOCC1 [Compound 33] | 38 ± 5
31 | COc1ccc(C)cc1C(=O)NCC1(c2ccccc2)CCOCC1 [Compound 34] | 47 ± 1
32 | CCOc1ccccc1C(=O)NCC1(c2ccccc2)CCOCC1 [Compound 35] | 74 ± 9
33 | COc1ccccc1C(=O)NCC1(c2csc3ccccc23)CCOCC1 [Compound 38] | < 10
34 | COc1ccc(-c2csc(C3(CNC(=O)c4ccccc4OC)CCOCC3)n2)cc1 [Compound 39] | < 10
35 | COc1ccccc1C(=O)NCC1(c2nc(-c3ccccc3)cs2)CCOCC1 [Compound 40] | < 10
36 | COc1ccccc1C(=O)NCC1(c2csc(C)n2)CCOCC1 [Compound 41] | 41 ± 10
37 | COc1ccccc1C(=O)NCC1(c2cscn2)CCOCC1 [Compound 42] | 54 ± 10
38 | COc1cccc(OC)c1C(=O)NCC1(c2ccsc2)CCOCC1 [Compound 45] | < 10
39 | O=C(NCC1(c2ccsc2)CCOCC1)c1ccoc1 [Compound 46] | 21 ± 6
40 | CCOc1ccccc1C(=O)NCC1(c2ccsc2)CCOCC1 [Compound 47] | 35 ± 8
41 | COc1ccc(C)cc1C(=O)NCC1(c2ccsc2)CCOCC1 [Compound 48] | 42 ± 6
42 | COc1ccccc1CC(=O)NCC1(c2ccsc2)CCOCC1 [Compound 49] | 43 ± 1
43 | COc1ccc(F)cc1C(=O)NCC1(c2ccsc2)CCOCC1 [Compound 50] | 47 ± 9
44 | COc1cc(C)ccc1C(=O)NCC1(c2ccsc2)CCOCC1 [Compound 51] | 82 ± 1

same assay, conditions: KV1.3; manual voltage-clamp, Xenopus laevis oocytes

Row | SMILES | IC50 [µM]
45 | COc1cccc(C2(CNC(=O)c3ccccc3OC)CCOCC2)c1 [Compound 28] | 5.75
46 | COc1ccccc1C(=O)NCC1(c2cccc(C)c2)CCOCC1 [Compound 29] | 4.3

target: T1, KV1.3; test: KV1.3 inhibition, HiClamp on Xenopus laevis oocytes; format: cell-based; conditions: Xenopus laevis oocytes (marked * in Table 2)
Experimental: as §1, §2, §3, §4, §5

Row | SMILES | IC50 [µM]
47 | COc1cc(C)ccc1C(=O)NCC1(c2ccccc2)CCOCC1 [Compound 36] | 1.65
48 | COc1cc(C)ccc1C(=O)NCC1(c2ccsc2)CCOCC1 [Compound 51] | 2.92

tested on: Panc-1 cell line; test: not given; design: method as in PMID 29034212; conditions: Panc-1 cell line; read-out: EC50 decrease of cell survival; cited from earlier work

Row | SMILES | EC50 [µM]
49 | O=c1ccc2c(OCCCCOc3ccc(CCC[P+](c4ccccc4)(c4ccccc4)c4ccccc4)cc3)c3ccoc3cc2o1 [PAPTP] | ~3
50 | O=C(NCCC[P+](c1ccccc1)(c1ccccc1)c1ccccc1)Oc1ccc(OCCCCOc2c3ccoc3cc3oc(=O)ccc23)cc1 [PCARBTP] | ~6
